Like-named read-outs stand apart in the source and are kept apart here.
Tests used:
[1] = target: T1, BSA (Bos taurus, UniProt P02769); assay: Competitive BSA-fluorescence studies with warfarin and ibuprofen; type: binding, bovine; settings: for BSA drug site preference: drug site I (warfarin) vs II (ibuprofen)
T1 construct: purchased Sigma-Aldrich Co
Procedure: where n = the number of binding sites per albumin and K = the SA–binding constant. The K constant (M−1) is calculated from the slope in plots (ΔI/I0)/[Q] versus (ΔI/I0) and n is given by the ratio of y intercept to the slope [S9].
S4.2 Competitive SA–fluorescence studies with warfarin and ibuprofen
The competitive studies with warfarin or ibuprofen (site probes) [S10] were performed by tryptophan fluorescence quenching experiments using a fixed concentration of the BSA and site probes (3 μM) in buffer (containing 15 mM trisodium citrate and 150 mM NaCl at pH 7.0). The fluorescence emission spectra were recorded in the presence of increasing amounts of the compounds as quenchers with an excitation wavelength of 295 nm. The Scatchard equation (eq. 7) [S6] and plots were applied on the corrected SA–fluorescence emission spectra in order to determine the BSA–binding constant of the compounds in the presence of warfarin or ibuprofen.

[2] = DPPH radical scavenging; settings: compound 0.1 mM
Procedure: S1 Antioxidant biological assay
The antioxidant activity of the compounds was evaluated via their ability to scavenge in
vitro free radicals such as DPPH and ABTS and to reduce H2O2. All the experiments were carried
S1.1 Determination of the reducing activity of the stable radical DPPH
To an ethanolic solution of DPPH (0.1 mM) an equal volume solution of the compounds
(0.1 mM) in ethanol was added. Absolute ethanol was also used as control solution. The absorbance
at 517 nm was recorded at room temperature after 30 and 60 min, in order to examine the possible
existence of a potential time–dependence of the DPPH radical scavenging activity [S1]. The DPPH–
scavenging activity of the compounds was expressed as the percentage reduction of the absorbance
values of the initial DPPH solution (DPPH%). NDGA and BHT were used as reference compounds. […]

[3] = target: T2, HSA (Homo sapiens, UniProt P02768); assay: HSA fluorescence quenching; type: binding; settings: for ΔΙ/Ιο (%) HSA fluorescence quenching: HSA 3 μM; for K HSA-binding constant: Scatchard; for relative HSA-fluorescence emission intensity, % of the initial: final value
T2 construct: purchased Sigma-Aldrich Co
Procedure: S4 Interaction with serum albumins
S4.1 Study of the affinity for serum albumins
The albumin–binding study for the compounds was carried out by fluorescence emission quenching experiments using BSA (3 μM) or HSA (3 μM) in buffer solution (15 mM trisodium citrate and 150 mM NaCl at pH 7.0). The tested compounds were used as quenchers with gradually increasing concentrations to monitor the quenching of the emission intensity of tryptophan residues of BSA at 345 nm or HSA at 340 nm [S6]. The fluorescence emission spectra were recorded between 300–500 nm with excitation wavelength of 295 nm. All the experiments were conducted at room temperature. The fluorescence spectra of the compounds were recorded under the same experimental conditions and presented a low–intensity emission band in the region 395–415 nm.
Consequently, the SA fluorescence emission spectra were modified properly, by subtracting the spectra of the compounds, and quantitative studies followed.
The extent of the inner–filter effect can be roughly estimated with the following formula: […]
where Icorr= corrected intensity, Imeas= the measured intensity, c = the concentration of the quencher, d = the cuvette length (1 cm), ε(λexc) and ε(λem) = the ε of the quencher at the excitation and the emission wavelength, respectively, as calculated from the UV –vis spectra of the complexes [S 8].
The interaction of the quencher (i.e. compounds) with serum albumins [S6] was studied through the Stern–Volmer and Scatchard equations [S6] and corresponding graphs. The values of the respective Stern–Volmer constant KSV (M–1), the quenching constant k q (M–1s–1), the SA– binding constant K (M–1) and the number of binding sites per albumin (n) were calculated.
According to Stern–Volmer quenching equation [S6] (eq. S2), where I 0 = the initial tryptophan fluorescence intensity of SA, I = the tryptophan fluorescence intensity of SA after the addition of the quencher, kq = the quenching rate constants of SA, K SV = the dynamic quenching constant, τ0 = the average lifetime of SA without the quencher, [Q] = the concentration of the quencher), the Stern –Volmer constant (KSV, M–1) can be obtained by the slope of the diagram I0/I versus [Q]. Taking τ0 = 10–8 s as fluorescence lifetime of tryptophan in SA [S2], the quenching constant (kq, M–1s–1) is calculated from equation S3.
From the Scatchard equation (eq. S5) [S6]: […]
(1 picture or pasted object on this page, not shown here) […]
where n = the number of binding sites per albumin and K = the SA–binding constant. The K constant (M−1) is calculated from the slope in plots (ΔI/I0)/[Q] versus (ΔI/I0) and n is given by the ratio of y intercept to the slope [S9]. […]

[4] = target: CT DNA; assay: CT DNA binding by UV-vis spectroscopy; design: species or system calf; settings: Wolfe–Shimer equation
Procedure: page 8: […] spectroscopy, viscosity measurements and fluorescence emission spectroscopy studies. […] UV-vis spectroscopy was used for the evaluation of the interaction of the compounds with CT DNA, and specifically the possible binding modes of the compounds to CT DNA. Control experiments with DMSO were performed and no changes in the spectra of CT DNA were observed. In order to determine the binding mode, the UV-vis spectra of the compounds were […] concentrations of CT DNA for diverse r (r = [complex]/[DNA]) values. Effective use of the changes […] compounds were calculated by the Wolfe-[…] equation (eq. […] εf) versus [DNA]: (eq. S1) where [DNA] = the concentration of DNA in base pairs, ε f= the extinction coefficient for the free compound at the corresponding λmax, εA = Aobsd/[compound] and εb= the extinction coefficient for the compound in the fully bound form. K b is given by the ratio of slope to the y intercept in plots [DNA]/(εA-εf) versus [DNA]. S3.2 CT DNA-binding studies by viscosity measurements […] presence of increasing amounts of the compounds. The experiments were executed at room temperature and the measurements are devised in a plot (η/η 0)1/3 versus r, where η = the viscosity of DNA in the presence of the compound, and η0 = the viscosity of neat DNA in buffer solution. […] In order to determine and confirm the DNA-binding mode of the compounds, a competitive study with EB as an intercalating marker is performed by fluorescence emission spectroscopy. Therefore, the EB-displacing ability of the compounds from its EB-DNA conjugate was examined. […] solution (150 mM NaCl and 15 mM trisodium citrate at pH 7.0). The potential intercalation of the compounds between the DNA-bases was studied by the addition of a certain amount of the 8 (1 picture or pasted object on this page, not shown here)

[5] = read-out: BSA-binding constant K, Marker: Ibuprofen, ibuprofen 3 μM
[6] = read-out: BSA-binding constant K, Marker: Warfarin, warfarin 3 μM

T2 sequence (P02768 25-609): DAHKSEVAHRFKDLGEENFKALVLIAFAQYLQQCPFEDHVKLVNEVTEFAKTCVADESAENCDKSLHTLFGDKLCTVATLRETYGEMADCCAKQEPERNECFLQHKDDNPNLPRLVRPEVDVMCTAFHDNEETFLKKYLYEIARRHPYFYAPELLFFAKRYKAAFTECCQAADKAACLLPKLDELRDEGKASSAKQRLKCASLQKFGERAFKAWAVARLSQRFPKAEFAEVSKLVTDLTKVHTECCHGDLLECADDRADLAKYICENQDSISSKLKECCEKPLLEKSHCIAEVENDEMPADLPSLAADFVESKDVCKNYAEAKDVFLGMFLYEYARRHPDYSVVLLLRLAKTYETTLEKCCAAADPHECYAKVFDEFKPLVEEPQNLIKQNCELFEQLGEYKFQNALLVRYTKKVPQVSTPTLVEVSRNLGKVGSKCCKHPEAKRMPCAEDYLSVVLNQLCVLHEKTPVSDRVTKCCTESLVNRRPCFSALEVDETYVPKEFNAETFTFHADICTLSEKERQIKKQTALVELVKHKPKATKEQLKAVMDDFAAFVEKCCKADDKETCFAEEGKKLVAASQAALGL
T1 sequence (P02769 25-607): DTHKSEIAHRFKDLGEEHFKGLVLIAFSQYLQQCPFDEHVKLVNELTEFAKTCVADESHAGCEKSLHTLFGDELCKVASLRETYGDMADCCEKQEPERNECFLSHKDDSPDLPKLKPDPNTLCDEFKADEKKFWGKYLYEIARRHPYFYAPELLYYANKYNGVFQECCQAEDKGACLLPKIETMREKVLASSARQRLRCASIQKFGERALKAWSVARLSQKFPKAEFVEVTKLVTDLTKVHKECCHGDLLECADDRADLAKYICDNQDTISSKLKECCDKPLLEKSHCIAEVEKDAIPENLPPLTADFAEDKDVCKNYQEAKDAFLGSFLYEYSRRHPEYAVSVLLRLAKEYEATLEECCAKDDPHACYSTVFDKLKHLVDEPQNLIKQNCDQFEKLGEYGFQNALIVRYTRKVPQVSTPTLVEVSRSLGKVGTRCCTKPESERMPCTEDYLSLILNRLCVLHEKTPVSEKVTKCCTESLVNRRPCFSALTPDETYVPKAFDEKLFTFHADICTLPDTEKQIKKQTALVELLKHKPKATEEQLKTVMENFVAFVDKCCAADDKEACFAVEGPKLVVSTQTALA

Structure (SMILES) | Kd [1] [µM] | Kd [1, 5] [µM] | Kd [1, 6] [µM] | DPPH% (30 min) [2] [%] | DPPH% (60 min) [2] [%] | Kd [3] [µM] | kq HSA-quenching constant [3] | Kb (DNA-binding constant) [4] | BSA-binding constant K, Marker: Ibuprofen ([1]; ibuprofen 3 μM) | BSA-binding constant K, No Marker [1] | BSA-binding constant K, Marker: Warfarin ([1]; warfarin 3 μM) | ΔΙ/Ιο (%) HSA fluorescence quenching [3] [%] | K HSA-binding constant [3] | relative HSA-fluorescence emission intensity, % of the initial [3] [%] | BSA drug site preference [1]
CCN(CC)c1ccc(C=O)c(O)c1 [4-Et2N-saloH, 4-diethylamino-salicylaldehyde, reference compound] | 2.4 | 20.6 | 7.52 | 2.47 ± 0.09 | 3.20 ± 0.08 | 2.48 | 2.10 (±0.22) × 10^13 M^−1 s^−1 | 5.06 (±0.14) × 10^5 M^−1 | – | – | – | – | – | – | –
COc1ccc(C=O)c(O)c1 [4-OMe-saloH, 4-methoxy-salicylaldehyde, reference compound] | 2.43 | 12.7 | 68.5 | 4.16 ± 0.10 | 6.27 ± 0.25 | 10.3 | 2.28 (±0.13) × 10^12 M^−1 s^−1 | – | – | – | – | – | – | – | –
O=Cc1cc(F)ccc1O [5-F-saloH, 5-fluoro-salicylaldehyde, reference compound] | 23.2 | 21.7 | 33.1 | 3.96 ± 1.16 | 5.56 ± 1.06 | 21.5 | 1.96 (±0.07) × 10^12 M^−1 s^−1 | 8.37 (±0.47) × 10^4 M^−1 | – | – | – | – | – | – | –
CCN(CC)c1ccc(C=O)c([O][Pd][O]c2cc(N(CC)CC)ccc2C=O)c1 [Complex 1, [Pd(4-Et2N-salo)2]] | – | – | – | 2.45 ± 0.09 | 4.00 ± 0.53 | – | 3.48 (±0.14) × 10^13 M^−1 s^−1 | 3.66 (±0.22) × 10^5 M^−1 | 8.94 (±0.63) × 10^4 M^−1 | 1.08 (±0.06) × 10^5 M^−1 | 9.34 (±0.60) × 10^4 M^−1 | 91.8 | 1.25 (±0.06) × 10^5 M^−1 | 8.2 | –
O=Cc1cc(Br)cc(Br)c1[O][Pd][O]c1c(Br)cc(Br)cc1C=O [Complex 2, [Pd(3,5-diBr-salo)2]] | – | – | – | 7.99 ± 0.24 | 14.63 ± 0.53 | – | 4.22 (±0.13) × 10^13 M^−1 s^−1 | 3.18 (±0.21) × 10^5 M^−1 | 1.05 (±0.09) × 10^5 M^−1 | 1.50 (±0.06) × 10^6 M^−1 | 9.64 (±0.70) × 10^4 M^−1 | 88.8 | 4.12 (±0.15) × 10^5 M^−1 | 11.2 | –
O=Cc1cc(Cl)cc(Cl)c1[O-].O=Cc1cc(Cl)cc(Cl)c1[O-].[Pd+2] [Complex 3, [Pd(3,5-diCl-salo)2]] | – | – | – | 4.60 ± 0.20 | 2.91 ± 0.11 | – | 5.00 (±0.12) × 10^13 M^−1 s^−1 | 1.90 (±0.12) × 10^6 M^−1 | 2.89 (±0.10) × 10^5 M^−1 | 7.82 (±0.24) × 10^5 M^−1 | 3.26 (±0.34) × 10^5 M^−1 | 90.4 | 4.10 (±0.17) × 10^5 M^−1 | 9.6 | –
O=Cc1cc(F)ccc1[O-].O=Cc1cc(F)ccc1[O-].[Pd+2] [Complex 4, [Pd(5-F-salo)2]] | – | – | – | 14.82 ± 0.45 | 13.61 ± 0.48 | – | 1.82 (±0.06) × 10^13 M^−1 s^−1 | 2.84 (±0.14) × 10^5 M^−1 | 9.27 (±0.48) × 10^4 M^−1 | 8.79 (±0.13) × 10^4 M^−1 | 6.05 (±0.27) × 10^4 M^−1 | 75.7 | 1.38 (±0.05) × 10^5 M^−1 | 24.3 | drug site I
COc1ccc(C=O)c([O-])c1.COc1ccc(C=O)c([O-])c1.[Pd+2] [Complex 5, [Pd(4-OMe-salo)2]] | – | – | – | 2.29 ± 0.36 | 3.00 ± 0.25 | – | 6.69 (±0.23) × 10^13 M^−1 s^−1 | 1.27 (±0.10) × 10^6 M^−1 | 6.52 (±0.46) × 10^4 M^−1 | 9.18 (±0.27) × 10^5 M^−1 | 1.46 (±0.14) × 10^5 M^−1 | 92.2 | 3.56 (±0.12) × 10^5 M^−1 | 7.8 | drug site II
